Tests used:
[1] = target: human cathepsin K (UniProt P43236); assay: Cathepsin K Assay (hrbCat K); assay type: biochemical; conditions: Z-Leu-Arg-AMC substrate, pH 5.5, 15 min preincubation; read-out: hrbCat K (IP (nM))
Method in brief: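 Human cathepsin K (0.4 nM) was preincubated 15 min at room temperature with compound in 50 mM MES pH 5.5, 2.5 mM EDTA, 2.5 mM DTT and 10% DMSO. Inhibition was fitted to a dose-response model.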

[2] = target: T1, human cathepsin F (Homo sapiens, UniProt Q9UBX1); assay: Cathepsin F assay (hCat F); assay type: biochemical; conditions: Z-Phe-Arg-AMC substrate, pH 5.5, 15 min preincubation; read-out: hCat F (IP (nM))
T1 sequence (Q9UBX1 271-484): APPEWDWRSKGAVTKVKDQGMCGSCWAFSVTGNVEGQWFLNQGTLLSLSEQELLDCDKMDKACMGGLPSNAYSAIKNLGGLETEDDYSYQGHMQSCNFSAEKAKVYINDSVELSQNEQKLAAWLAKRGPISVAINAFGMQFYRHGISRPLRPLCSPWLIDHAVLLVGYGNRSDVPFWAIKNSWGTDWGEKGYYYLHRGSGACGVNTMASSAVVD
Method in brief: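 AMC release from Z-Phe-Arg-AMC, added at 8 μM, was monitored fluorometrically (360/460 nm) for 20 min after 10 nM enzyme and compound had been preincubated 15 min at room temperature. Buffer: MES 50 mM pH 5.5, EDTA and DTT 2.5 mM each, 10% DMSO. Compound DMSO dilutions spanned 500–0.025 μM (3-fold). Dose-response fitting gave % inhibition.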

| SMILES | IC50 [1] [nM] | IC50 [2] [nM] |
| --- | --- | --- |
| CC(C)(C)c1nc([C@@H]2CCCC[C@H]2C(=O)NC2(C#N)CC2)c(-c2ccc(N3CCS(=O)(=O)CC3)cc2)s1 [Example 20, (1R,2R)-2-(2-(tert-butyl)-5-(4-(1,1-dioxidothiomorpho-lino)phenyl)thiazol-4-yl)-N-(1-cyanocyclopropyl) cyclohexanecarbox-amide] | 2.7 | 8630 |
| N#CC1(NC(=O)[C@@H]2CC(F)(F)CC[C@H]2c2nc(CC(F)(F)F)sc2-c2ccc(N3CCS(=O)(=O)CC3)cc2)CC1 [Example 21, (1R,2R)-N-(1-cyanocyclopropyl)-2-(5-(4-(1,1-dioxidothiomorpho-lino)phenyl)-2-(2,2,2-trifluoroethyl)thia-zol-4-yl)-5,5-difluorocyclohexane-carboxamide] | 1.6 | 314 |
| N#CC1(NC(=O)[C@@H]2CCCC[C@H]2c2nc(CC(F)(F)F)sc2-c2ccc(N3CCS(=O)(=O)CC3)cc2)CC1 [Example 22, (1R,2R)-N-(1-cyanocyclopropyl)-2-(5-(4-(1,1-dioxidothiomorpho-lino)phenyl)-2-(2,2,2-trifluoroethyl)thia-zol-4-yl)cyclohexane-carboxamide] | 6.6 | 8520 |
| N#CC1(NC(=O)[C@@H]2CC(F)(F)CC[C@H]2c2nc(CCC(F)(F)F)sc2-c2ccc(N3CCS(=O)(=O)CC3)cc2)CC1 [Example 23, (1R,2R)-N-(1-cyanocyclopropyl)-2-(5-(4-(1,1-dioxidothiomorpho-lino)phenyl)-2-(3,3,3-trifluoropropyl)thia-zol-4-yl)-5,5-difluorocyclohexane-carboxamide] | 1.1 | 223 |
| N#CC1(NC(=O)[C@@H]2CCCC[C@H]2c2nc(CCC(F)(F)F)sc2-c2ccc(N3CCS(=O)(=O)CC3)cc2)CC1 [Example 24, (1R,2R)-N-(1-cyanocyclopropyl)-2-(5-(4-(1,1-dioxidothiomorpho-lino)phenyl)-2-(3,3,3-trifluoropropyl)thia-zol-4-yl)cyclohexane-carboxamide] | 5.6 | 2230 |
| CC(C)(C)c1nc([C@@H]2CC[C@H](F)C[C@H]2C(=O)NC2(C#N)CC2)c(-c2ccc(N3CCS(=O)(=O)CC3)cc2)s1 [Example 25, (1R,2R,5S)-2-(2-(tert-butyl)-5-(4-(1,1-dioxidothiomorpho-lino)phenyl)thiazol-4-yl)-N-(1-cyanocyclopropyl)-5-fluorocyclohexane-carboxamide] | 3.3 | 9260 |
| N#CC1(NC(=O)[C@@H]2CC(F)(F)CC[C@H]2c2nc(-c3ccc(F)cc3)sc2-c2ccc(N3CCS(=O)(=O)CC3)cc2)CC1 [Example 26, (1R,2R)-N-(1-cyanocyclopropyl)-2-(5-(4-(1,1-dioxidothiomorpho-lino)phenyl)-2-(4-fluorophenyl)thiazol-4-yl)-5,5-difluorocyclohexane-carboxamide] | 0.3 | 35 |
| N#CC1(NC(=O)[C@@H]2CCCC[C@H]2c2nc(-c3ccc(F)cc3)sc2-c2ccc(N3CCS(=O)(=O)CC3)cc2)CC1 [Example 27, (1R,2R)-N-(1-cyanocyclopropyl)-2-(5-(4-(1,1-dioxidothiomorpho-lino)phenyl)-2-(4-fluorophenyl)thiazol-4-yl)cyclohexane-carboxamide] | 0.6 | 1000 |
| N#CC1(NC(=O)[C@@H]2CC(F)(F)CC[C@H]2c2nc(-c3ccc(F)cc3)sc2-c2ccc(C(=O)N3CCOCC3)cc2)CC1 [Example 28, (1R,2R)-N-(1-cyanocyclopropyl)-5,5-difluoro-2-(2-(4-fluorophenyl)-5-(4-(morpholine-4-carbonyl)phenyl)thi-azol-4-yl)cyclohexane-carboxamide] | 2.3 | 63 |
| CS(=O)(=O)N1CCN(C(=O)c2ccc(-c3sc(-c4ccc(F)cc4)nc3[C@@H]3CCC(F)(F)C[C@H]3C(=O)NC3(C#N)CC3)cc2)CC1 [Example 29, (1R,2R)-N-(1-cyanocyclopropyl)-5,5-difluoro-2-(2-(4-fluorophenyl)-5-(4-(4-(methylsulfonyl)piperazine-1-carbonyl)phenyl)thi-azol-4-yl)cyclohexane-carboxamide] | 1.9 | 57 |
| N#CC1(NC(=O)[C@@H]2CC(F)(F)CC[C@H]2c2nc(-c3ccc(F)cc3)sc2-c2ccc(C(=O)N3CCNC(=O)C3)cc2)CC1 [Example 30, (1R,2R)-N-(1-cyanocyclopropyl)-5,5-difluoro-2-(2-(4-fluorophenyl)-5-(4-(3-oxopiperazine-1-carbonyl)phenyl)thi-azol-4-yl)cyclohexane-carboxamide] | 2.2 | 51 |
| N#CC1(NC(=O)[C@@H]2CC(F)(F)CC[C@H]2c2nc(-c3ccc(F)cc3)sc2-c2ccc(C(=O)N3CCC(O)CC3)cc2)CC1 [Example 31, (1R,2R)-N-(1-cyanocyclopropyl)-5,5-difluoro-2-(2-(4-fluorophenyl)-5-(4-(4-hydroxypiperidine-1-carbonyl)phenyl)thi-azol-4-yl)cyclohexane-carboxamide] | 3.4 | 73 |
| N#CC1(NC(=O)[C@@H]2CCCC[C@H]2c2nc(-c3ccc(F)cc3)sc2-c2ccc(C(=O)N3CCOCC3)cc2)CC1 [Example 32, (1R,2R)-N-(1-cyanocyclopropyl)-2-(2-(4-fluorophenyl)-5-(4-(morpholine-4-carbonyl)phenyl)thi-azol-4-yl)cyclohexane-carboxamide] | 65.1 | 422 |
| CS(=O)(=O)N1CCN(C(=O)c2ccc(-c3sc(-c4ccc(F)cc4)nc3[C@@H]3CCCC[C@H]3C(=O)NC3(C#N)CC3)cc2)CC1 [Example 33, (1R,2R)-N-(1-cyanocyclopropyl)-2-(2-(4-fluorophenyl)-5-(4-(4-(methylsulfonyl)piperazine-1-carbonyl)phenyl)thi-azol-4-yl)cyclohexane-carboxamide] | 47 | 410 |
| N#CC1(NC(=O)[C@@H]2CCCC[C@H]2c2nc(-c3ccc(F)cc3)sc2-c2ccc(C(=O)N3CCC(O)CC3)cc2)CC1 [Example 34, (1R,2R)-N-(1-cyanocyclopropyl)-2-(2-(4-fluorophenyl)-5-(4-(4-hydroxypiperidine-1-carbonyl)phenyl)thi-azol-4-yl)cyclohexane-carboxamide] | 101 | 868 |
| N#CC1(NC(=O)[C@@H]2CCCC[C@H]2c2nc(-c3ccc(F)cc3)sc2-c2ccc(C(=O)N3CCNC(=O)C3)cc2)CC1 [Example 35, (1R,2R)-N-(1-cyanocyclopropyl)-2-(2-(4-fluorophenyl)-5-(4-(3-oxopiperazine-1-carbonyl)phenyl)thi-azol-4-yl)cyclohexane-carboxamide] | 64.5 | 667 |
| N#CC1(NC(=O)[C@@H]2CCCC[C@H]2c2nc(-c3cccnc3)sc2-c2ccc(N3CCS(=O)(=O)CC3)cc2)CC1 [Example 37, (1R,2R)-N-(1-cyanocyclopropyl)-2-(5-(4-(1,1-dioxidothiomorpho-lino)phenyl)-2-(pyridin-3-yl)thiazol-4-yl)cyclohexane-carboxamide] | 0.5 | 2620 |
| N#CC1(NC(=O)[C@@H]2CCCC[C@H]2c2nc(-c3ccc(C(F)(F)F)nc3)sc2-c2ccc(N3CCS(=O)(=O)CC3)cc2)CC1 [Example 38, (1R,2R)-N-(1-cyanocyclopropyl)-2-(5-(4-(1,1-dioxidothiomorpho-lino)phenyl)-2-(6-(trifluoromethyl)pyridin-3-yl)thiazol-4-yl)cyclohexane-carboxamide] | 1.8 | 2060 |
| N#CC1(NC(=O)[C@@H]2CCCC[C@H]2c2nc(-c3ccon3)sc2-c2ccc(N3CCS(=O)(=O)CC3)cc2)CC1 [Example 39, (1R,2R)-N-(1-cyanocyclopropyl)-2-(5-(4-(1,1-dioxidothiomorpho-lino)phenyl)-2-(isoxazol-3-yl)thiazol-4-yl)cyclohexane-carboxamide] | 1 | 1360 |
| N#CC1(NC(=O)[C@@H]2CCCC[C@H]2c2nc(N3CCOCC3)sc2-c2ccc(N3CCS(=O)(=O)CC3)cc2)CC1 [Example 40, (1R,2R)-N-(1-cyanocyclopropyl)-2-(5-(4-(1,1-dioxidothiomorpho-lino)phenyl)-2-morpholinothiazol-4-yl)cyclohexane-carboxamide] | 1.8 | ≥ 10000 |
| N#CC1(NC(=O)[C@@H]2CCCC[C@H]2c2nc(-c3ccc(Cl)cn3)sc2-c2ccc(N3CCS(=O)(=O)CC3)cc2)CC1 [Example 41, (1R,2R)-2-(2-(5-chloropyridin-2-yl)-5-(4-(1,1-dioxidothiomorpho-lino)phenyl)thiazol-4-yl)-N-(1-cyanocyclopropyl) cyclohexanecarbox-amide] | 1.2 | 945 |
| CC(C)(O)c1ccc(-c2nc([C@@H]3CCCC[C@H]3C(=O)NC3(C#N)CC3)c(-c3ccc(N4CCS(=O)(=O)CC4)cc3)s2)cc1 [Example 43, (1R,2R)-N-(1-cyanocyclopropyl)-2-(5-(4-(1,1-dioxidothiomorpho-lino)phenyl)-2-(4-(2-hydroxypropan-2-yl)phenyl)thiazol-4-yl)cyclohexane-carboxamide] | 1.2 | 1110 |
| N#CC1(NC(=O)[C@@H]2CCCC[C@H]2c2nc(-c3cncc(F)c3)sc2-c2ccc(N3CCS(=O)(=O)CC3)cc2)CC1 [Example 44, (1R,2R)-N-(1-cyanocyclopropyl)-2-(5-(4-(1,1-dioxidothiomorpho-lino)phenyl)-2-(5-fluoropyridin-3-yl)thiazol-4-yl)cyclohexane-carboxamide] | 0.7 | 790 |
